Data taken from US9663495B2 (YUHAN CORPORATION, priority 2013, dated 2017).

Legend:
[1] = molecular target: T1, GPR119 (Homo sapiens, UniProt Q8TDV5); assay: cAMP Accumulation Assay (GPR119 CRE-bla CHO-K1 cells, LiveBLAzer-FRET B/G); type: cell-based; conditions: for EC50: 5 hours incubation; for Emax (Fold): maximum activity, response ratio versus non-treated control group
T1 construct: host or cells: CHO-K1 (GPR119 CRE-bla, doxycycline-induced)
T1 sequence (Q8TDV5 1-335): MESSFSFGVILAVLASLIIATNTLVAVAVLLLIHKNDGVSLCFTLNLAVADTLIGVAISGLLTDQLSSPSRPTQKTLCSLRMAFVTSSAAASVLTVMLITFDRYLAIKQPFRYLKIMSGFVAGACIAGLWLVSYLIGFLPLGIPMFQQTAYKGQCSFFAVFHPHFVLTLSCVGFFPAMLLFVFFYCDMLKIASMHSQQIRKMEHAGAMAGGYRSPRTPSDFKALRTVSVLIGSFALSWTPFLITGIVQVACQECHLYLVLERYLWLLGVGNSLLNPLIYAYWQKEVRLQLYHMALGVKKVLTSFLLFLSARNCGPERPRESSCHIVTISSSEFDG
Description: 32 μl of an assay medium (DMEM supplemented with GlutaMax™ 99%, dialyzed FBS 1%, non-essential amino acid 1 mM, HEPES 25 mM, penicillin 100 U/ml, and streptomycin 100 μg/ml) was added to each well of a 384 black well plate and then the GPR119 CRE-bla CHO-K1 cells (Invitrogen) were seeded in 1×10^4 cells per well. Doxycycline was dissolved in the assay medium in the concentration of 1 μg/ml. The resulting solution (4 μl) was added to each well, which was then incubated in a 5% CO 2 incubator at 37° C. for about 20 to 24 hours. Each test compounds were diluted with the assay medium to prepare 10 samples, which have concentrations ranging from […], respectively. Each samples (8 μl) was added to each well, which was then incubated in a 5% CO2 incubator at 37° C. for 5 hours. In case of the control group, the well was treated with a solution (8 μl) prepared by diluting dimethyl sulfoxide (DMSO) in the assay medium to 1%. The substrate mixture (8 μl) was added to each well, which was then left under darkness at room temperature for 2 hours. The substrate mixture contains the followings: 1 mM LiveBLAzer™-FRET B/G(CCF4-AM) substrate 6 μl, solution B 60 μl, solution C 904 μl, and solution D 30 μl.
Fluorescence intensity was determined under the wavelength conditions of 400 nm/465 nm (excitation/emission) for the blue channel and 400 nm/535 nm (excitation/emission) for the green channel, with the fluorescence microplate reader (SpectraFluor Plus. TECAN). The net activity of each well was calculated by subtracting the average value of the cell-free control group from the value of the unstimulated (i.e., non-treated) control group or the stimulated (i.e., test compound-treated) group at each wavelength. MBX-2982 (Metabolex) was used as a control drug. The response ratio was calculated by dividing the net signal ratio (465 nm/535 nm) of the control drug or the test compound by the net signal ratio (465 nm/535 nm) of the non-treated control group. The relative ratio (R.R) was calculated by dividing the maximum activity [Emax (fold)] of the test compound (i.e., % activity in comparison with the background) by the maximum activity [Emax (fold)] of the control drug (MBX-2982) [Emax (% RR)=(Emax of the test compound/Emax of MBX-2982)×100]. EC50 (half maximal effective concentration) was calculated using the software for statistical analysis “Prism 5.0 (GraphPad)”, based on the values obtained according to concentrations of the test compounds.

[2] = molecular target: T1, GPR119; assay: as above; type: cell-based; conditions: (Emax of the test compound/Emax of MBX-2982)x100, 5 hours incubation

Row | SMILES | EC50 [1] [nM] | Emax (Fold) [1] [Fold] | Emax (% RR) [2] [% RR]
1 | CCc1cnc(N2CCN(c3ncc(-c4ccc(-n5cnn(CC(C)C)c5=O)c(F)c4)cc3C#N)[C@@H](C)C2)nc1 [Example 12, (S)-2-(4-(5-ethylpyrimidin-2-yl)-2-methylpiperazin-1-yl)-5-(3-fluoro-4-(1-isobutyl-5-oxo-1H-1,2,4-triazol-4(5H)-yl)phenyl)nicotinonitrile] | 1 | 2.6 | 103.8
2 | CCc1cnc(N2CCN(c3ncc(-c4ccc(-n5cnn(C(C)C)c5=O)c(F)c4)cc3C#N)CC2)nc1 [Example 30, 2-(4-(5-ethylpyrimidin-2-yl)piperazin-1-yl)-5-(3-fluoro-4-(1-isopropyl-5-oxo-1H-1,2,4-triazol-4(5H)-yl)phenyl)nicotinonitrile] | 1.5 | 3.8 | 130.9
3 | CCc1cnc(N2CCN(c3ncc(-c4ccc(-n5cnn(CCNC(C)C)c5=O)c(F)c4)cc3C#N)[C@@H](C)C2)nc1.Cl [Example 20, (S)-2-(4-(5-ethylpyrimidin-2-yl)-2-methylpiperazin-1-yl)-5-(3-fluoro-4-(1-(2-(isopropylamino)ethyl)-5-oxo-1H-1,2,4-triazol-4(5H)-yl)phenyl)nicotinonitrile hydrochloride] | 5.6 | 3.1 | 109.6
4 | CCc1cnc(N2CCN(c3ncc(-c4ccc(-n5cnn(C)c5=O)c(F)c4)cc3C#N)[C@@H](C)C2)nc1 [Example 9, (S)-2-(4-(5-ethylpyrimidin-2-yl)-2-methylpiperazin-1-yl)-5-(3-fluoro-4-(1-methyl-5-oxo-1H-1,2,4-triazol-4(5H)-yl)phenyl)nicotinonitrile] | 3 | 2.8 | 118.2
5 | CC(C)c1nc(N2CCN(c3ncc(-c4ccc(-n5cnn(C)c5=O)c(F)c4)cc3C#N)CC2)no1 [Example 45, 5-(3-fluoro-4-(1-methyl-5-oxo-1H-1,2,4-triazol-4(5H)-yl)phenyl)-2-(4-(5-isopropyl-1,2,4-oxadiazol-3-yl)piperazin-1-yl)nicotinonitrile] | 7.3 | 4.2 | 144.7
6 | CC(C)n1ncn(-c2ccc(-c3cnc(N4CCC(N(C)C(=O)OC(C)(C)C)CC4)c(C#N)c3)cc2F)c1=O [Example 58, tert-butyl 1-(3-cyano-5-(3-fluoro-4-(1-isopropyl-5-oxo-1H-1,2,4-triazol-4(5H)-yl)phenyl)pyridin-2-yl)piperidin-4-yl(methyl)carbamate] | 16 | 2.6 | 105.4
7 | CCCn1ncn(-c2ccc(-c3cnc(N4CCN(C(=O)OC(C)(C)C)C[C@@H]4C)nc3)cc2F)c1=O [Example 2, (S)-tert-butyl 4-(5-(3-fluoro-4-(5-oxo-1-propyl-1H-1,2,4-triazol-4(5H)-yl)phenyl)pyrimidin-2-yl)-3-methylpiperazin-1-carboxylate] | 31.9 | 3.3 | 101.6
8 | CCc1cnc(N2CCN(c3ncc(-c4cc(F)c(-n5cnn(C)c5=O)cc4F)cc3C#N)[C@@H](C)C2)nc1 [Example 29, (S)-5-(2,5-difluoro-4-(1-methyl-5-oxo-1H-1,2,4-triazol-4(5H)-yl)phenyl)-2-(4-(5-ethylpyrimidin-2-yl)-2-methylpiperazin-1-yl)nicotinonitrile] | 1.5 | 3.1 | 110.1
9 | CCc1cnc(N2CCN(c3ncc(-c4ccc(-n5cnn(CC(C)(C)O)c5=O)c(F)c4)cc3C#N)[C@@H](C)C2)nc1 [Example 11, (S)-2-(4-(5-ethylpyrimidin-2-yl)-2-methylpiperazin-1-yl)-5-(3-fluoro-4-(1-(2-hydroxy-2-methylpropyl)-5-oxo-1H-1,2,4-triazol-4(5H)-yl)phenyl)nicotinonitrile] | 5 | 2.9 | 102.1
10 | CC(C)n1ncn(-c2ccc(-c3cnc(N4CCC(c5nnc(C(F)(F)F)o5)CC4)c(C#N)c3)cc2F)c1=O [Example 74, 5-(3-fluoro-4-(1-isopropyl-5-oxo-1H-1,2,4-triazol-4(5H)-yl)phenyl)-2-(4-(5-(trifluoromethyl)-1,3,4-oxadiazol-2-yl)piperidin-1-yl)nicotinonitrile] | 5.6 | 3.0 | 104.2
11 | CCc1cnc(N2CCN(c3ncc(-c4ccc(-n5cnn([C@H]6CCNC6)c5=O)cc4)cc3C#N)CC2)nc1 [Example 42, (S)-2-(4-(5-ethylpyrimidin-2-yl)piperazin-1-yl)-5-(4-(5-oxo-1-(pyrrolidin-3-yl)-1H-1,2,4-triazol-4(5H)-yl)phenyl)nicotinonitrile] | 21 | 3.0 | 109.3
12 | CCc1cnc(N2CCN(c3ncc(-c4ccc(-n5cnn(C)c5=O)cc4)cc3C#N)CC2)nc1 [Example 39, 2-(4-(5-ethylpyrimidin-2-yl)piperazin-1-yl)-5-(4-(1-methyl-5-oxo-1H-1,2,4-triazol-4(5H)-yl)phenyl)nicotinonitrile] | 3.8 | 3.9 | 133.6
13 | CC(C)c1noc(C2CCN(c3ncc(-c4ccc(-n5cnn(CN6CCCC6)c5=O)c(F)c4)cc3C#N)CC2)n1 [Example 64, 5-(3-fluoro-4-(5-oxo-1-(pyrrolidin-1-ylmethyl)-1H-1,2,4-triazol-4(5H)-yl)phenyl)-2-(4-(3-isopropyl-1,2,4-oxadiazol-5-yl)piperidin-1-yl)nicotinonitrile] | 2.6 | 3.8 | 130.8
14 | COCCn1ncn(-c2ccc(-c3cnc(N4CCN(C(=O)OC(C)(C)C)C[C@@H]4C)nc3)cc2F)c1=O [Example 4, (S)-tert-butyl 4-(5-(3-fluoro-4-(1-(2-methoxyethyl)-5-oxo-1H-1,2,4-triazol-4(5H)-yl)phenyl)pyrimidin-2-yl)-3-methylpiperazin-1-carboxylate] | 54.9 | 3.5 | 108.0
15 | CC(C)n1ncn(-c2ccc(-c3cnc(N4CCC(c5nnc(C(F)(F)F)o5)CC4)c(C#N)c3)cc2)c1=O [Example 73, 5-(4-(1-isopropyl-5-oxo-1H-1,2,4-triazol-4(5H)-yl)phenyl)-2-(4-(5-(trifluoromethyl)-1,3,4-oxadiazol-2-yl)piperidin-1-yl)nicotinonitrile] | 8.2 | 2.9 | 101.3
16 | COCCn1ncn(-c2ccc(-c3cnc(N4CCC(c5nnc(C(F)(F)F)o5)CC4)c(C#N)c3)cc2F)c1=O [Example 76, 5-(3-fluoro-4-(1-(2-methoxyethyl)-5-oxo-1H-1,2,4-triazol-4(5H)-yl)phenyl)-2-(4-(5-(trifluoromethyl)-1,3,4-oxadiazol-2-yl)piperidin-1-yl)nicotinonitrile] | 19.6 | 2.9 | 101.8
17 | CC(C)c1nc(N2CCN(c3ncc(-c4ccc(-n5cnn(C(C)C)c5=O)c(F)c4)cc3C#N)CC2)no1 [Example 46, 5-(3-fluoro-4-(1-isopropyl-5-oxo-1H-1,2,4-triazol-4(5H)-yl)phenyl)-2-(4-(5-isopropyl-1,2,4-oxadiazol-3-yl)piperazin-1-yl)nicotinonitrile] | 4.2 | 3.9 | 133.3
